Source: patent publication US5980913A, “Peptides having immunomodulatory activity” (Biochem Pharma, Inc., priority 1994, dated 1999)
Where a SMILES comes first, the peptide text is derived from it. [ ]: non-standard residue; d: D form.

Assays:
P815 target cells = test: Cytotoxic T lymphocytes (CTL) assay, 51Cr release, after 5 days mixed culture with drug; type: cell-based, C57BL/6 mice
Text: (§1) 1. Cytotoxic T Lymphocytes (CTL) Mixed Lymphocyte Reaction (MLR) and Mitogenic Response Assays
(§2) The protocols used are described in Hudson L., Haay F., Pratical immunology, 3rd edition, Blackwell, Scientific publications, Oxford 1989, p. 158-162, and p.447.
(§3) Lymphocytes were isolated from C57BL/6 mice and DBA/2 mice in accordance to techniques well known in the art. Cell concentration was adjusted to 10×10^6 cell/ml for each assay. The cells isolated from DBA/2 mice were irradiated with 3000 Rads.
(§4) In a 6 well plate, each well was set up with:
(§5) The cells were incubated for five days at 37° C. in 5% CO2, after which CTL and MLR assays were performed.
a) Cytotoxic T Lymphocytes (CTL)
P815 target cells were labelled with Cr^51 (0.1 mCi). After labelling, the cells were washed three times and resuspended to a concentration of 5×10^4 cells/ml in media. p T cells were then counted and diluted to obtain a concentration of 2.5×10^6 cells/ml, and then further diluted to obtain the following effector:target ratios:
100 μl of target cells+100 μl of CTLs were incubated for 4 hours. In parallel wells, 100 μl of target cells+100 μl of media were incubated for spntaneous release. After incubation, cells were centrifuged and 100 μl of supernatant was then counted using a gamma counter.
Results are expressed as % specific ^51 Cr release= [formula] where ER=experimental release, SR=spontaneous releaase, and
0 represents less than 20%, + represents 20-40%, ++ represents 40-60%, +++ represent 60-80%, and ++++ represents 80% and over.

[1] = system: C57BL/6 lymphocytes with irradiated DBA/2 cells; test: Mixed lymphocyte reaction (MLR), 3H thymidine uptake; type: cell-based, mice
Text: as §1, §2, §3, §4, §5
b) Mixed Lymphocyte Reaction (MLR)
Mixed lymphocyte reaction is an in vitro counterpart of the allograft rejection. Briefly, lymphocyte activation (mitotic response) is obtained when cells from two inbred strains or from two outbred individuals of any species are mixed in in vitro culture. To have a unidirectional response, the proliferation of either cell type may be blocked with X-ray irradiation or mitomycin C treatment. After 4 days incubation, ^3 H thymidine uptake and cytotoxicity assays (CTL) were performed. The cells were then resuspended and 100 μl of cell suspension was deposited in each well of a 96 well plate. 1 μCi of tritiated thymidine was added for 6 hours. After incubation, the cells were then harvested and counted using a Microbeta counter.

T cells = test: Activation of T cells by mitogenic proliferation (ConA, PHA); type: cell-based, C57BL/6 mice
Text: (§6) c) Activation of T or B cells by Mitogenic Proliferation
(§7) A mitogenic lectin (mitogen) is a glycoprotein which binds and cross-links specific cells surface carbohydrate determinants, and will polyclonally stimulate lymphoid cells. Lymphocyte activation by either antigens or mitogens results in intracellular changes and the subsequent development into a lymphoblast. Mitogenic stimulation of lymphocytes in vitro is believed to mimic the series of events which occur in vivo following their stimulation by specific antigens. PHA and ConA; PWM and LPS mitogens can be used as a measurement of T cell and B cell activity, respectively. Briefly, the spleen mononuclear leukocytes from C57BL/6 mice are incubated in the presence or absence of mitogens with or without candidate drugs. After 72 hours or 5 days, ^3 H-thymidine incorporation is recorded as an indication of cell proliferation.
(§8) Lymphocytes were isolated from mice spleen or human blood in accordance to methods well known in the art. 100 μl of cell suspension of 2×10^6 cells/ml was added per well (2x10^5 cells/well) and incubated in the presence of lectin at the following concentrations:
PHA=0.01% to 0.001% final concentration
(§9) Cells were incubated for 3 days with PHA or ConA, or 5 days with PWM or LPS. 1 μCi of tritiated thymidine was added to each well for the last 6 hours (or 0.5 μCi for 18 hrs). The cells were harvested in a cell Harvester (Tortech®) and counted in a Beta counter.

B cells = test: Activation of B cells by mitogenic proliferation (LPS, PWM); type: cell-based, C57BL/6 mice
Text: as §6, §7, §8
PWM=0.2 to 0.02% final concentration
as §9

[2] = concentration not given, 0 not defined

Row | Compound | CTL, % augmentation compared to IL-2 (IL-2 is 100%) (P815 target cells; 10^-9 M) | MLR ([1]; 10^-9 M) [×] | Activation of T Cells, ConA (T cells; 10^-12 M - 10^-10 M) [×] | Activation of T Cells, PHA (T cells; [2]) | stimulation of T cells in vitro (in words) (T cells; summary of Table 1) | Activation of B Cells, LPS (B cells; 10^-8 - 10^-5 M) | Activation of B Cells, PWM (B cells; 10^-8 - 10^-5 M) | stimulation of B cells in vitro (in words) (B cells; summary of Table 1) | stimulation of CTL in vitro (in words) (P815 target cells; summary of Table 1) | MLR [1, 2] | Activation of T Cells, ConA (T cells; [2]) | Activation of B Cells, LPS (B cells; [2]) | Activation of B Cells, PWM (B cells; [2]) | CTL, % augmentation compared to IL-2 (IL-2 is 100%) (P815 target cells; concentration not given)
1 | NCCCC[C@H](N)C(=O)N[C@@H](CC(N)=O)C(=O)NCC(=O)N[C@@H](Cc1ccc(O)cc1)C(=O)O [PEPTIDE #2, H-Lys-Asn-Gly-Tyr-OH] (H-KNGY-OH) | ++++ (++++ represents 80% and over) | 1.8 | 1.3 | 0 | stimulates T cells to a moderate extent | 1.8 - 3.5 × | 1.4 - 4.5 × | stimulates B cells |  |  |  |  |  | 
2 | NCCCC[C@H](N)C(=O)N[C@@H](CC(N)=O)C(=O)N1CCC[C@@H]1C(=O)N[C@@H](Cc1ccc(O)cc1)C(=O)O [PEPTIDE #3, H-Lys-Asn-(D-Pro)-Tyr-OH] (H-KN[dP]Y-OH) | ++ (++ represents 40-60%) |  |  | 0 |  |  |  |  | stimulate CTL | 0 | 0 | 0 | 0 | 
3 | NCCCC[C@H](N)C(=O)N[C@@H](CC(N)=O)C(=O)N1CCC[C@H]1C(=O)N[C@@H](Cc1ccccc1)C(=O)O [PEPTIDE #4, H-Lys-Asn-Pro-Phe-OH] (H-KNPF-OH) |  |  |  | 0 |  |  |  |  |  | 0 | 0 | 0 | 0 | 0 (0 represents less than 20%)
4 | NCCCC[C@H](N)C(=O)N[C@@H](CCC(N)=O)C(=O)N1CCC[C@H]1C(=O)N[C@@H](Cc1ccc(O)cc1)C(=O)O [PEPTIDE #6, H-Lys-Gln-Pro-Tyr-OH] (H-KQPY-OH) |  |  |  | 0 |  |  |  |  |  | 0 | 0 | 0 | 0 | 0 (0 represents less than 20%)
5 | NCC(=O)N[C@@H](CC(N)=O)C(=O)N1CCC[C@H]1C(=O)N[C@@H](Cc1ccc(O)cc1)C(=O)O [PEPTIDE #8, H-Gly-Asn-Pro-Tyr-OH] (H-GNPY-OH) |  |  |  | 0 |  |  |  |  |  |  | 0 | 0 | 0 | 
